Source: patent publication US9522886B2, “Pyridine derivatives” (Hoffmann-La Roche Inc., priority 2012, dated 2016)
Structures can show the parent of a compound that is named as a salt.

Key:
human CB2 receptors = human CB2 receptors (Homo sapiens (Human), UniProt P34972); assay: cAMP assay, CHO cells expressing human CB2 receptors; assay type: cell-based; conditions: functional cAMP assay, CHO cells expressing human CB2; read-out: human CB2 EC50
human CB1 receptors = human CB1 receptors (Homo sapiens (Human), UniProt P21554); assay: cAMP assay, CHO cells expressing human CB1 receptors; assay type: cell-based; conditions: functional cAMP assay, CHO cells expressing human CB1; read-out: human CB1 EC50
human CB1 receptors, sequence (P21554 whole entry): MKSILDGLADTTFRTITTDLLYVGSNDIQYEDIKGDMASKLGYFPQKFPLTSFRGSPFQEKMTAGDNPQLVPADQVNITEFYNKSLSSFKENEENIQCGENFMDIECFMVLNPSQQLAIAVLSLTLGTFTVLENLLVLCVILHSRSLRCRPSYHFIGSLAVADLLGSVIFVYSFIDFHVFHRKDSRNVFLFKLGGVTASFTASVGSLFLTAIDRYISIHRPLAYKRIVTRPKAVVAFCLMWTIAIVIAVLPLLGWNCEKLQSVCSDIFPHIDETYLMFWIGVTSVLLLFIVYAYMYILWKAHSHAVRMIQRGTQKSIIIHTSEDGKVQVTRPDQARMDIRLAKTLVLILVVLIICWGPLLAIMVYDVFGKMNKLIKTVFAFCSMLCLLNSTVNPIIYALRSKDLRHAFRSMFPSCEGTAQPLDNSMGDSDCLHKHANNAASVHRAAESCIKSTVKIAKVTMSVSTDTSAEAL

human CB2 receptors, sequence (P34972 whole entry): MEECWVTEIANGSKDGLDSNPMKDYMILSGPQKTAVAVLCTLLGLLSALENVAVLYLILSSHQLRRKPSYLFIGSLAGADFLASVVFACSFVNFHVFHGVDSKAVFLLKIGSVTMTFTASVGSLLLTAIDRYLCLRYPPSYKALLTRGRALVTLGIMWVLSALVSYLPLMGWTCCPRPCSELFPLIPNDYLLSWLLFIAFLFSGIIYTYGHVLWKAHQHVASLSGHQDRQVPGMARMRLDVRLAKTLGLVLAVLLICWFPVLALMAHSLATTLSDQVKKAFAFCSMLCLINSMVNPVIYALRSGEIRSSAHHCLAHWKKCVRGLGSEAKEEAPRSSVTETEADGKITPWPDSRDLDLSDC

Structure (SMILES)	EC50 (human CB2 receptors) [nM]	EC50 (human CB1 receptors) [nM]
NC(=O)CC(NC(=O)c1ccc(C2CC2)c(OCC2CC2)n1)C1CCOCC1 (centres unmarked) [Example 30, 5-Cyclopropyl-6-cyclopropylmethoxy-pyridine-2-carboxylic acid [2-carbamoyl-1-(tetrahydro-pyran-4-yl)-ethyl]-amide]	8.3	> 10000
NC(=O)CC1(NC(=O)c2ccc(C3CC3)c(Cc3ccc(F)cc3)n2)CCNCC1 [Example 66, N-[4-(2-Amino-2-oxoethyl)piperidin-4-yl]-5-cyclopropyl-6-[(4-fluorophenyl)methyl]pyridine-2-carboxamide; hydrochloride]	1.3	> 10000
CNC(=O)CC1(NC(=O)c2ccc(N3CC(F)(F)C3)c(OCC3CC3)n2)COC1 [Example 37, 6-Cyclopropylmethoxy-5-(3,3-difluoro-azetidin-1-yl)-pyridine-2-carboxylic acid (3-methylcarbamoylmethyl-oxetan-3-yl)-amide]	363	> 10000
NC(=O)CC(NC(=O)c1ccc(N2CC(F)(F)C2)c(OCC2CC2)n1)C1CCOC1 (centres unmarked) [Example 67, N-[3-Amino-3-oxo-1-(oxolan-3-yl)propyl]-6-(cyclopropylmethoxy)-5-(3,3-difluoroazetidin-1-yl)pyridine-2-carboxamide]	8.3	> 10000
CC(=O)N1CC(CC(N)=O)(NC(=O)c2ccc(N3CC(F)(F)C3)c(OCC3CC3)n2)C1 [Example 73, N-[1-Acetyl-3-(2-amino-2-oxoethyl)azetidin-3-yl]-6-(cyclopropylmethoxy)-5-(3,3-difluoroazetidin-1-yl)pyridine-2-carboxamide]	120	> 10000
NC(=O)CC1(NC(=O)c2ccc(N3CC(F)(F)C3)c(OCC3CC3)n2)CNC(=O)C1 (centres unmarked) [Example 54, 6-Cyclopropylmethoxy-5-(3,3-difluoro-azetidin-1-yl)-pyridine-2-carboxylic acid (3-carbamoylmethyl-5-oxo-pyrrolidin-3-yl)-amide]	55	> 10000
NC(=O)CC1(NC(=O)c2ccc(C3CC3)c(OCC3CCCO3)n2)CS(=O)(=O)C1 (centres unmarked) [Example 80, N-[3-(2-Amino-2-oxoethyl)-1,1-dioxothietan-3-yl]-5-cyclopropyl-6-(oxolan-2-ylmethoxy)pyridine-2-carboxamide]	2.4	> 10000
CC(C)[S+]([O-])c1nc(C(=O)NC2(CC(N)=O)COC2)ccc1Br (centres unmarked) [Example 44, 5-Bromo-6-(propane-2-sulfinyl)-pyridine-2-carboxylic acid (3-carbamoylmethyl-oxetan-3-yl)-amide]	413	> 10000
NC(=O)CC1(NC(=O)c2ccc(N3CC(F)(F)C3)c(OCC3CC3)n2)CS(=O)(=O)C1 [Example 61, 6-Cyclopropylmethoxy-5-(3,3-difluoro-azetidin-1-yl)-pyridine-2-carboxylic acid (3-carbamoylmethyl-1,1-dioxo-1λ6-thietan-3-yl)-amide]	1	7750
NC(=O)CC1(NC(=O)c2ccc(OC(F)(F)F)c(OCC3CC3)n2)COC1 [Example 46, 6-Cyclopropylmethoxy-5-trifluoromethoxy-pyridine-2-carboxylic acid (3-carbamoylmethyl-oxetan-3-yl)-amide]	31.4	> 10000
CN(C)C(=O)CC1(NC(=O)c2ccc(C(F)(F)F)c(OCC3CC3)n2)COC1 [Example 42, 6-Cyclopropylmethoxy-5-trifluoromethyl-pyridine-2-carboxylic acid (3-dimethylcarbamoylmethyl-oxetan-3-yl)-amide]	967	> 10000
NC(=O)CC(NC(=O)c1ccc(C2CC2)c(OCC2CC2)n1)C1CCOCC1 (single isomer, unassigned; (-)) [Example 34, (−)-5-Cyclopropyl-6-cyclopropylmethoxy-pyridine-2-carboxylic acid [2-carbamoyl-1-(tetrahydro-pyran-4-yl)-ethyl]-amide]	2.2	> 10000
CCCCCC(CC(=O)NC)NC(=O)c1ccc(N2CC(F)(F)C2)c(OCC2CC2)n1 (centres unmarked) [Example 7, 6-Cyclopropylmethoxy-5-(3,3-difluoro-azetidin-1-yl)-pyridine-2-carboxylic acid (1-methylcarbamoylmethyl-hexyl)-amide]	55.6	> 10000
